According to patent US20220356186A1, “PERK INHIBITING PYRROLOPYRIMIDINE COMPOUNDS” (HiberCell, Inc., priority 2019, published 2022):
Like-named read-outs stand apart in the source and are kept apart here.

Experiments:
[1] = tested on: GFP-eIF2α in HEK293 cells; assay: PERK cellular assay, TR-FRET in HEK293-EGFP-eIF2a cells after tunicamycin-induced ER stress; format: cell-based; details: HEK293-EGFP-eIF2a cells, tunicamycin 2 hours, read-out: Cellular eIF2α IC50
Description: Stable cell lines were created in HEK293 cells using lentiviral particles harboring an expression vector for GFP-eIF2α. Cells were selected using puromycin and enriched using fluorescence activated cell sorting against GFP. HEK293-EGFP-eIF2a cells were plated at 5000 cells/well in 384-well assay plates and incubated overnight at 37° C., 5% CO2. Inhibitor compounds were added to the wells by Echo acoustic dispensing and incubated for 30 minutes at 37° C., 5% CO2 prior to induction of ER stress by addition of tunicamycin to […] for 2 hours. Cells were lysed and TR-FRET was measured in an EnVision plate reader (PerkinElmer). FRET ratio data was normalized to signal from lysates treated with DMSO vehicle control and plotted as percent inhibition against 10-point; 3-fold dilution series of inhibitors. IC50 values were calculated using 4-parameter logistical fitting in XLFit.

[2] = target: T1, EIF2AK3 (PERK) catalytic domain (amino acids 536-1116) (Homo sapiens, UniProt Q9NZJ5); assay: PERK in vitro activity assay (isolated), TR-FRET kinase assay; format: biochemical; details: isolated PERK enzyme, 1.5 μM ATP; read-out: Biochemical IC50
T1 construct: EIF2AK3 (PERK) catalytic domain (amino acids 536-1116)
T1 sequence (Q9NZJ5 536-1116): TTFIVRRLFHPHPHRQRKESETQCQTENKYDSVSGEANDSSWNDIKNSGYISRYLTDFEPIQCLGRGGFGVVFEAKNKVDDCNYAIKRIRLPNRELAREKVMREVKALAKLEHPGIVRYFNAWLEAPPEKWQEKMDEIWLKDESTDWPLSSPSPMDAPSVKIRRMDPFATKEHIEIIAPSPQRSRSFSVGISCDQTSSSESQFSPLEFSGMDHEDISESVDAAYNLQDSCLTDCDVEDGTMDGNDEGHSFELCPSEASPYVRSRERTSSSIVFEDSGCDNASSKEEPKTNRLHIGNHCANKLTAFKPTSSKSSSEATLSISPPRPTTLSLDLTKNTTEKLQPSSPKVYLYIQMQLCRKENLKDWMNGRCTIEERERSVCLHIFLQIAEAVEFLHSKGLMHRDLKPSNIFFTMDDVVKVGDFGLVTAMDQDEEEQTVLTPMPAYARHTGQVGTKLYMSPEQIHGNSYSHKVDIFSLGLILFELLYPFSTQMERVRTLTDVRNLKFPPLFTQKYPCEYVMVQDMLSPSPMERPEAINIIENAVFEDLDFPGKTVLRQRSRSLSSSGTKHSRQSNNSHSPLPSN
From the text: PERK In Vitro Activity Assay (Isolated):
In vitro Inhibition of PERK Enzyme Activity (isolated) Recombinant human EIF2AK2 (PKR) catalytic domain (amino acids 252-551), EIF2AK3 (PERK) catalytic domain (amino acids 536-1116), GFP-eIF2a substrate, and Terbium-labelled phospho-eIF2a antibody is obtained (Invitrogen, Carlsbad, Calif.).
Express and purify HIS-SUMO-GCN2 catalytic domain (amino acids 584-1019) from E. coli. Perform TR-FRET kinase assays in the absence or presence of inhibitors in a reaction buffer consisting of 50 mM HEPES, pH 7.5, 10 mM MgCb, 1.0 mM EGTA, and 0.01% Brij-35, and 100-200 nM GFP-eIF2a substrate. […] Add test compound, initiate the reaction by addition of enzyme, and incubate at room temperature for 45 minutes. Stop the reaction by addition of EDTA to a final concentration of 10 mM, add Terbium-labelled phospho-eIF2a antibody at a final concentration of 2 nM, and incubate for 90 minutes. Monitor the resulting fluorescence in an EnVison® Multilabel reader (PerkinElmer, Waltham, Mass.). Determine TR-FRET ratios and the resulting IC50 values using a 4-parameter nonlinear logistic equation as shown: Y=(A+((B−A)/(1+((C/x)[…])))) where, Y=% specific inhibition, A=Bottom of the curve, B=Top of the curve, C=absolute IC50 (concentration causing 50% inhibition), and D=hill slope.

IC50 [2]	Structure (SMILES)	IC50 ([1]; Homo sapiens, HEK293, 2 h)	IC50 [1]
1 to 25 nM	Cc1nc(N)c2c(-c3ccc(NC(=O)C(O)c4cccc(C(F)(F)F)c4)cc3F)cn(C)c2n1 (centres unmarked) [Example 78, N-(4-(4-amino-2,7-dimethyl-7H-pyrrolo[2,3-d]pyrimidin-5-yl)-3-fluorophenyl)-2-hydroxy-2-(3-(trifluoromethyl)phenyl)acetamide]	1 to 25 nM	–
26 to 50 nM	COc1cccc(CC(=O)Nc2ccc(-c3cn(C)c4ncnc(N)c34)c(C)c2)c1 [Example 139, N-(4-(4-amino-7-methyl-7H-pyrrolo[2,3-d]pyrimidin-5-yl)-3-methylphenyl)-2-(3-methoxyphenyl)acetamide]	251 to 500 nM	–
51 to 100 nM	Cc1nc(N)c2c(-c3ccc(NC(=O)C(O)c4cccc(Cl)c4)cc3F)cn(C)c2n1 (centres unmarked) [Example 81, N-(4-(4-amino-2,7-dimethyl-7H-pyrrolo[2,3-d]pyrimidin-5-yl)-3-fluorophenyl)-2-(3-chlorophenyl)-2-hydroxyacetamide]	–	101 to 250 nM
1 to 25 nM	Cc1nc(N)c2c(-c3c(C)cc(NC(=O)C(O)c4cccc(F)c4)cc3C)cn(C)c2n1 (centres unmarked) [Example 126, N-(4-(4-amino-2,7-dimethyl-7H-pyrrolo[2,3-d]pyrimidin-5-yl)-3,5-dimethylphenyl)-2-(3-fluorophenyl)-2-hydroxyacetamide]	51 to 100 nM	–
26 to 50 nM	COc1cc(NC(=O)C(O)c2cccc(F)c2)ccc1-c1cn(C)c2ncnc(N)c12 (centres unmarked) [Example 104, N-(4-(4-amino-7-methyl-7H-pyrrolo[2,3-d]pyrimidin-5-yl)-3-methoxyphenyl)-2-(3-fluorophenyl)-2-hydroxyacetamide]	–	101 to 250 nM
101 to 250 nM	Cc1cc(NC(=O)CCc2ccccc2)ccc1-c1cn(C)c2ncnc(N)c12 [Example 168, N-(4-(4-amino-7-methyl-7H-pyrrolo[2,3-d]pyrimidin-5-yl)-3-methylphenyl)-3-phenylpropanamide]	1000 to 2000 nM	–
51 to 100 nM	CCc1cccc(C(O)C(=O)Nc2ccc(-c3cn(C)c4nc(C)nc(N)c34)c(Cl)c2)c1 (centres unmarked) [Example 98, N-(4-(4-amino-2,7-dimethyl-7H-pyrrolo[2,3-d]pyrimidin-5-yl)-3-chlorophenyl)-2-(3-ethylphenyl)-2-hydroxyacetamide]	–	251 to 500 nM
1 to 25 nM	Cc1cc(NC(=O)Cc2cccc3ccccc23)ccc1-c1cn(C)c2ncnc(N)c12 [Example 153, N-(4-(4-amino-7-methyl-7H-pyrrolo[2,3-d]pyrimidin-5-yl)-3-methylphenyl)-2-(naphthalen-1-yl)acetamide]	26 to 50 nM	–
1 to 25 nM	Cc1nc(N)c2c(-c3ccc(NC(=O)C(O)c4cccc(C(F)(F)F)c4)nc3C)cn(C)c2n1 (centres unmarked) [Example 129, N-(5-(4-amino-2,7-dimethyl-7H-pyrrolo[2,3-d]pyrimidin-5-yl)-6-methylpyridin-2-yl)-2-hydroxy-2-(3-(trifluoromethyl)phenyl)acetamide]	–	51 to 100 nM
1 to 25 nM	Cc1cc(NC(=O)Cc2ccccc2C(F)(F)F)ccc1-c1cn(C)c2ncnc(N)c12 [Example 157, N-(4-(4-amino-7-methyl-7H-pyrrolo[2,3-d]pyrimidin-5-yl)-3-methylphenyl)-2-(2-(trifluoromethyl)phenyl)acetamide]	51 to 100 nM	–
1 to 25 nM	COc1ccccc1CC(=O)Nc1ccc(-c2cn(C)c3ncnc(N)c23)c(C)c1 [Example 138, N-(4-(4-amino-7-methyl-7H-pyrrolo[2,3-d]pyrimidin-5-yl)-3-methylphenyl)-2-(2-methoxyphenyl)acetamide]	101 to 250 nM	–

More lines, now with the values behind:

Structure (SMILES)	IC50 [2]	IC50 ([1]; Homo sapiens, HEK293, 2 h)	IC50 [1]
Cc1cc(NC(=O)C(O)c2ccccc2Cl)ccc1-c1cn(C)c2ncnc(N)c12 (centres unmarked) [Example 33, N-(4-(4-amino-7-methyl-7H-pyrrolo[2,3-d]pyrimidin-5-yl)-3-methylphenyl)-2-(2-chlorophenyl)-2-hydroxyacetamide]	1 to 25 nM	51 to 100 nM	–
Cc1nc(N)c2c(-c3ccc(NC(=O)C(O)c4cccc(Cl)c4)cc3C)cn(C)c2n1 (centres unmarked) [Example 37, N-(4-(4-amino-2,7-dimethyl-7H-pyrrolo[2,3-d]pyrimidin-5-yl)-3-methylphenyl)-2-(3-chlorophenyl)-2-hydroxyacetamide]	1 to 25 nM	–	1 to 25 nM
Cc1nc(N)c2c(-c3ccc(NC(=O)C(O)c4cccc(Cl)c4)cc3C)cn(C)c2n1 (centres unmarked) [Example 36, N-(4-(4-amino-2,7-dimethyl-7H-pyrrolo[2,3-d]pyrimidin-5-yl)-3-methylphenyl)-2-(3-chlorophenyl)-2-hydroxyacetamide]	1 to 25 nM	–	26 to 50 nM
Cc1cc(NC(=O)C(O)c2cccc(F)c2)ccc1-c1cn(C)c2ncnc(N)c12 (centres unmarked) [Example 10, N-(4-(4-amino-7-methyl-7H-pyrrolo[2,3-d]pyrimidin-5-yl)-3-methylphenyl)-2-(3-fluorophenyl)-2-hydroxyacetamide]	1 to 25 nM	–	51 to 100 nM
CCc1cccc(C(O)C(=O)Nc2ccc(-c3cn(C)c4nc(C)nc(N)c34)c(C)c2)c1 (centres unmarked) [Example 44, N-(4-(4-amino-2,7-dimethyl-7H-pyrrolo[2,3-d]pyrimidin-5-yl)-3-methylphenyl)-2-(3-ethylphenyl)-2-hydroxyacetamide]	101 to 250 nM	–	1000 to 2000 nM
Cn1cc(-c2ccc(NC(=O)C(O)c3cccc(F)c3)cc2F)c2c(N)ncnc21 (single isomer, unassigned) [Example 3, N-(4-(4-amino-7-methyl-7H-pyrrolo[2,3-d]pyrimidin-5-yl)-3-fluorophenyl)-2-(3-fluorophenyl)-2-hydroxyacetamide]	1 to 25 nM	–	26 to 50 nM
Cc1nc(N)c2c(-c3ccc(NC(=O)C(O)c4cccc5cnn(C)c45)cc3C)cn(C)c2n1 (single isomer, unassigned) [Example 64, N-(4-(4-amino-2,7-dimethyl-7H-pyrrolo[2,3-d]pyrimidin-5-yl)-3-methylphenyl)-2-hydroxy-2-(1-methyl-1H-indazol-7-yl)acetamide]	251 to 500 nM	2000 to 3000 nM	–
Cc1cc(NC(=O)C(O)c2cccc(C(F)(F)F)c2)ccc1-c1cn(C)c2ncnc(N)c12 (centres unmarked) [Example 48, N-(4-(4-amino-7-methyl-7H-pyrrolo[2,3-d]pyrimidin-5-yl)-3-methylphenyl)-2-hydroxy-2-(3-(trifluoromethyl)phenyl)acetamide]	1 to 25 nM	–	51 to 100 nM
Cc1cc(NC(=O)C(O)c2cccc(F)c2)ccc1-c1cn(C)c2ncnc(N)c12 (centres unmarked) [Example 11, N-(4-(4-amino-7-methyl-7H-pyrrolo[2,3-d]pyrimidin-5-yl)-3-methylphenyl)-2-(3-fluorophenyl)-2-hydroxyacetamide]	1 to 25 nM	–	1 to 25 nM
Cc1nc(N)c2c(-c3ccc(NC(=O)C(O)c4ccccc4Cl)cc3C)cn(C)c2n1 (centres unmarked) [Example 34, N-(4-(4-amino-2,7-dimethyl-7H-pyrrolo[2,3-d]pyrimidin-5-yl)-3-methylphenyl)-2-(2-chlorophenyl)-2-hydroxyacetamide]	101 to 250 nM	501 to 1000 nM	–
Cc1nc(N)c2c(-c3ccc(NC(=O)C(O)c4cccc5c4OCC5)cc3C)cn(C)c2n1 (centres unmarked) [Example 63, N-(4-(4-amino-2,7-dimethyl-7H-pyrrolo[2,3-d]pyrimidin-5-yl)-3-methylphenyl)-2-(2,3-dihydrobenzofuran-7-yl)-2-hydroxyacetamide]	101 to 250 nM	2000 to 3000 nM	–
